ChEMBL document CHEMBL1149774, “Synthesis of N-(5,7-diamino-3-phenyl-quinoxalin-2-yl)-3,4,5-substituted anilines and N-[4[(5,7-diamino-3-phenylquinoxalin-2-yl)amino]benzoyl]-l-glutamic acid diethyl ester: evaluation of in vitro anti-cancer and anti-folate activities” (Eur J Med Chem, 2008)

What was measured:
Type in all cases: functional
SK-OV-3 = assay: Growth inhibition of human SKOV3 cells after 48 hrs by SRB staining method; details: SK-OV-3, 48 h
A549 = assay: Growth inhibition of human A549 cells after 48 hrs by SRB staining method; details: A549, 48 h
NCI-H23 = assay: Growth inhibition of human NCI-H23 cells after 48 hrs by SRB staining method; details: NCI-H23, 48 h
NCI-H460 = assay: Growth inhibition of human NCI-H460 cells after 48 hrs by SRB staining method; details: NCI-H460, 48 h
KM12 = assay: Growth inhibition of human KM12 cells after 48 hrs by SRB staining method; details: KM12, 48 h
PC-3 = assay: Growth inhibition of human PC3 cells after 48 hrs by SRB staining method; details: PC-3, 48 h
NCI/ADR-RES = assay: Growth inhibition of human NCI/ADR-RES cells after 48 hrs by SRB staining method
TK-10 = assay: Growth inhibition of human TK10 cells after 48 hrs by SRB staining method; details: TK-10, 48 h
OVCAR-8 = assay: Growth inhibition of human OVCAR8 cells after 48 hrs by SRB staining method; details: OVCAR-8, 48 h
SR = assay: Growth inhibition of human SR cells after 48 hrs by SRB staining method
SK-MEL-28 = assay: Growth inhibition of human SK-MEL-28 cells after 48 hrs by SRB staining method; details: SK-MEL-28, 48 h
A498 = assay: Growth inhibition of human A498 cells after 48 hrs by SRB staining method; details: A498, 48 h
CAKI-1 = assay: Growth inhibition of human CAKI1 cells after 48 hrs by SRB staining method; details: CAKI-1, 48 h
MDA-MB-435 = assay: Growth inhibition of human MDA-MB-435 cells after 48 hrs by SRB staining method; details: MDA-MB-435, 48 h
SF-295 = assay: Growth inhibition of human SF295 cells after 48 hrs by SRB staining method; details: SF-295, 48 h
SNB-19 = assay: Growth inhibition of human SNB19 cells after 48 hrs by SRB staining method; details: SNB-19, 48 h
MCF7 = assay: Growth inhibition of human MCF7 cells after 48 hrs by SRB staining method; details: MCF7, 48 h
T47D = assay: Growth inhibition of human T47D cells after 48 hrs by SRB staining method
HCT-116 = assay: Growth inhibition of human HCT116 cells after 48 hrs by SRB staining method; details: HCT-116, 48 h
K562 = assay: Growth inhibition of human K562 cells after 48 hrs by SRB staining method; details: K562, 48 h
EKVX = assay: Growth inhibition of human EKVX cells after 48 hrs by SRB staining method
RXF 393 = assay: Growth inhibition of human RXF393 cells after 48 hrs by SRB staining method; details: RXF 393, 48 h
M14 = assay: Growth inhibition of human M14 cells after 48 hrs by SRB staining method; details: M14, 48 h
IGROV-1 = assay: Growth inhibition of human IGROV1 cells after 48 hrs by SRB staining method; details: IGROV-1, 48 h
SK-MEL-5 = assay: Growth inhibition of human SK-MEL-5 cells after 48 hrs by SRB staining method; details: SK-MEL-5, 48 h
UACC-62 = assay: Growth inhibition of human UACC62 cells after 48 hrs by SRB staining method; details: UACC-62, 48 h
SF-268 = assay: Growth inhibition of human SF268 cells after 48 hrs by SRB staining method; details: SF-268, 48 h
UACC-257 = assay: Growth inhibition of human UACC257 cells after 48 hrs by SRB staining method; details: UACC-257, 48 h
U-251 = assay: Growth inhibition of human U251 cells after 48 hrs by SRB staining method; details: U-251, 48 h
786-0 = assay: Growth inhibition of human 786-0 cells after 48 hrs by SRB staining method; details: 786-0, 48 h
ACHN = assay: Growth inhibition of human ACHN cells after 48 hrs by SRB staining method
DU-145 = assay: Growth inhibition of human DU145 cells after 48 hrs by SRB staining method; details: DU-145, 48 h
MDA-MB-231 = assay: Growth inhibition of human MDA-MB-231 cells after 48 hrs by SRB staining method; details: MDA-MB-231, 48 h
[1] = read-out: pLC50 (the source's name) (converted)

In the case of COc1ccc(Nc2nc3cc(N)cc(N)c3nc2-c2ccccc2)cc1OC, the GI50 (SK-OV-3) is reported as 38 µM, the CC50 (SK-OV-3; [1]) is reported as greater than 100 µM and the TGI (SK-OV-3; read-out: pTGI (converted)) is reported as 87.1 µM. The GI50 (A549) was 35.5 µM, the CC50 (A549; [1]) was greater than 100 µM and the TGI (A549; read-out: pTGI (converted)) was greater than 100 µM. For the same molecule, the GI50 (NCI-H23) was 26.3 µM, the LC50 (NCI-H23) was greater than 100 µM and the TGI (NCI-H23; read-out: pTGI (converted)) was 79.4 µM. It also gave a GI50 (NCI-H460) of 20.4 µM, an LC50 (concentration killing 50% of cells) (NCI-H460) greater than 100 µM and a TGI (NCI-H460; read-out: pTGI (converted)) greater than 100 µM. The GI50 (KM12) was 14.8 µM, the LC50 (KM12) was 69.2 µM and the TGI (KM12; read-out: pTGI (converted)) was 32.4 µM. For the same molecule, the GI50 (PC-3) was 14.1 µM, the CC50 (PC-3; [1]) was 93.3 µM and the TGI (PC-3; read-out: pTGI (converted)) was 36.3 µM. The GI50 (NCI/ADR-RES) was 17.4 µM, the CC50 (NCI/ADR-RES; [1]) was greater than 100 µM and the TGI (NCI/ADR-RES; read-out: pTGI (converted)) was 42.7 µM. It also gave a GI50 (TK-10) of 20.9 µM, a CC50 (TK-10; [1]) greater than 100 µM and a TGI (TK-10; read-out: pTGI (converted)) of 58.9 µM. It also gave a GI50 (OVCAR-8) of 33.9 µM, a CC50 (OVCAR-8; [1]) greater than 100 µM and a TGI (OVCAR-8; read-out: pTGI (converted)) greater than 100 µM. The GI50 (SR) was 2.69 µM, the CC50 (SR; [1]) was greater than 100 µM and the TGI (SR; read-out: pTGI (converted)) was 21.9 µM. The GI50 (SK-MEL-28) was 21.4 µM, the CC50 (SK-MEL-28; [1]) was greater than 100 µM and the TGI (SK-MEL-28; read-out: pTGI (converted)) was 50.1 µM. It also gave a GI50 (A498) of 11.7 µM, a CC50 (A498; [1]) greater than 100 µM and a TGI (A498; read-out: pTGI (converted)) of 56.2 µM. It also gave a GI50 (CAKI-1) of 18.2 µM, a CC50 (CAKI-1; [1]) greater than 100 µM and a TGI (CAKI-1; read-out: pTGI (converted)) of 66.1 µM. It also gave a GI50 (MDA-MB-435) of 16.2 µM, a CC50 (MDA-MB-435; [1]) of 63.1 µM and a TGI (MDA-MB-435; read-out: pTGI (converted)) of 32.4 µM. For the same molecule, the GI50 (SF-295) was 17 µM, the LC50 (SF-295) was greater than 100 µM and the TGI (SF-295; read-out: pTGI (converted)) was 45.7 µM. It also gave a GI50 (SNB-19) of 35.5 µM, an LC50 (SNB-19) greater than 100 µM and a TGI (SNB-19; read-out: pTGI (converted)) greater than 100 µM. The GI50 (MCF7) was 20.4 µM, the CC50 (MCF7; [1]) was 97.7 µM and the TGI (MCF7; read-out: pTGI (converted)) was 44.7 µM. It also gave a GI50 (T47D) of 14.5 µM, a CC50 (T47D; [1]) greater than 100 µM and a TGI (T47D; read-out: pTGI (converted)) of 38 µM. The GI50 (HCT-116) was 14.8 µM, the LC50 (HCT-116) was 58.9 µM and the TGI (HCT-116; read-out: pTGI (converted)) was 29.5 µM. It also gave a GI50 (K562) of 20.4 µM, a CC50 (K562; [1]) greater than 100 µM and a TGI (K562; read-out: pTGI (converted)) of 70.8 µM. For the same molecule, the GI50 (EKVX) was 25.7 µM, the CC50 (EKVX; [1]) was greater than 100 µM and the TGI (EKVX; read-out: pTGI (converted)) was 70.8 µM. For the same molecule, the GI50 (RXF 393) was 8.13 µM, the CC50 (RXF 393; [1]) was greater than 100 µM and the TGI (RXF 393; read-out: pTGI (converted)) was 49 µM. The GI50 (M14) was 20.9 µM, the LC50 (M14) was greater than 100 µM and the TGI (M14; read-out: pTGI (converted)) was 69.2 µM. For the same molecule, the GI50 (IGROV-1) was 24.5 µM, the LC50 (IGROV-1) was greater than 100 µM and the TGI (IGROV-1; read-out: pTGI (converted)) was greater than 100 µM. It also gave a GI50 (SK-MEL-5) of 12.3 µM, an LC50 (SK-MEL-5) of 53.7 µM and a TGI (SK-MEL-5; read-out: pTGI (converted)) of 25.7 µM. For the same molecule, the GI50 (UACC-62) was 13.5 µM, the LC50 (UACC-62) was 56.2 µM and the TGI (UACC-62; read-out: pTGI (converted)) was 27.5 µM. It also gave a GI50 (SF-268) of 14.1 µM, a CC50 (SF-268; [1]) greater than 100 µM and a TGI (SF-268; read-out: pTGI (converted)) of 46.8 µM. For the same molecule, the GI50 (UACC-257) was 35.5 µM, the LC50 (UACC-257) was greater than 100 µM and the TGI (UACC-257; read-out: pTGI (converted)) was greater than 100 µM. For the same molecule, the GI50 (U-251) was 25.7 µM, the LC50 (50% lethal concentration) (U-251) was greater than 100 µM and the TGI (U-251; read-out: pTGI (converted)) was greater than 100 µM. For the same molecule, the GI50 (786-0) was 24 µM, the CC50 (786-0; [1]) was greater than 100 µM and the TGI (786-0; read-out: pTGI (converted)) was 91.2 µM. For the same molecule, the GI50 (ACHN) was 27.5 µM, the CC50 (ACHN; [1]) was greater than 100 µM and the TGI (ACHN; read-out: pTGI (converted)) was greater than 100 µM. For the same molecule, the GI50 (DU-145) was 44.7 µM, the CC50 (DU-145; [1]) was greater than 100 µM and the TGI (DU-145; read-out: pTGI (converted)) was greater than 100 µM. For the same molecule, the GI50 (MDA-MB-231) was 4.9 µM, the CC50 (MDA-MB-231; [1]) was 46.8 µM and the TGI (MDA-MB-231; read-out: pTGI (converted)) was 18.6 µM.
